Each compound was assayed against T1, human CCR6 (Homo sapiens, UniProt P51684) (assay: FLIPR assay (inhibition of CCL20-induced calcium signal)). Conditions: HEK-293 cells expressing human CCR6; mean values where determined several times; read-out: FLIPR IC50.
T1 construct: expressed in transfected cells; host or cells: HEK-293
T1 sequence (P51684 1-374): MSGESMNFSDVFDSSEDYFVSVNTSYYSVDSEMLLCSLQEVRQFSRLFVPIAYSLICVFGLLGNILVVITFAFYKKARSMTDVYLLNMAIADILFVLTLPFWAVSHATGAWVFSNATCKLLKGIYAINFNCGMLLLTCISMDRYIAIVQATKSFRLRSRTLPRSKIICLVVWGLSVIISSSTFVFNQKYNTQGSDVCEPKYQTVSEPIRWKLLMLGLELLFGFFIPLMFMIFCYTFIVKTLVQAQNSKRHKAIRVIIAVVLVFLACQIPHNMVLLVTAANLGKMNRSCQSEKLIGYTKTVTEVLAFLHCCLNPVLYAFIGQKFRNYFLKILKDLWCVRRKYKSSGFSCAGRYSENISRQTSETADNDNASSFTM
Type: cell-based
Protocol: FLIPR assay: The bioactivity of compounds is tested in a fluorometric imaging plate reader (FLIPR: Molecular Devices) using engineered HEK-293 cells expressing the human CCR6 (GenBank: AY242126). Frozen cells are plated on Poly-L-Lysine precoated 384-well plates 2 days prior to bioassay in DMEM medium supplemented with 10% FCS and 1% Penicillin-Streptomycin. […] This buffer, but lacking the dye, is also used for washing and compound dilution steps (assay buffer). Cells are washed free of excess dye with a wash-station (Biotek), leaving 40 microliter of assay buffer at the end. Cells were incubated for 15 minutes at room temperature in the dark, before adding compounds. Stock solutions of test compounds are made up at a concentration of 10 mM in DMSO, and serially diluted first in DMSO and then transferred in assay buffer to concentrations required for inhibition dose response curves. After a 45-minute incubation period in assay buffer at room temperature, 10 microliters of each compound dilution are transferred from a compound plate to the plate containing the recombinant cells in the FLIPR instrument according to the manufacturer's instructions. After cells and compounds were preincubated for 30 minutes at room temperature in the dark, 10 microliter agonist CCL20 (Peprotech) at a final concentration of 10 nM is added, again using the FLIPR instrument. Changes in fluorescence are monitored before and after addition of the test compounds and agonist. Emission peak values above base level after CCL20 addition are exported after base line subtraction.
The calculated IC50 values may fluctuate depending on the daily assay performance. Fluctuations of this kind are known to those skilled in the art.

SMILES	IC50 [nM]
CC(C)(C)N1CC(C)([C@](O)(c2ccc(OC(F)(F)F)cc2)c2cncc(N3CCCC3)c2)C1 [Example 12, (R)-(1-tert-Butyl-3-methyl-azetidin-3-yl)-(5-pyrrolidin-1-yl-pyridin-3-yl)-(4-trifluoromethoxy-phenyl)-methanol]	73.5
CC(C)c1ccc([C@](O)(c2cncc(CC#CO)c2)C2(C)CN(C)C2)cc1 [Example 14, 3-{5-[(R)-(1,3-Dimethyl-azetidin-3-yl)-hydroxy-(4-isopropyl-phenyl)-methyl]-pyridin-3-yl}-prop-1-yn-1-ol]	70.6
CC(C)c1ccc([C@](O)(c2cncc(C#CC(C)(C)O)c2)C2(C)CN(C)C2)cc1 [Example 15, 4-{5-[(R)-(1,3-Dimethyl-azetidin-3-yl)-hydroxy-(4-isopropyl-phenyl)-methyl]-pyridin-3-yl}-2-methyl-but-3-yn-2-ol]	80.8
CC(C)c1ccc([C@](O)(c2cncc(C#CCCO)c2)C2(C)CN(C)C2)cc1 [Example 22]	126
Cc1nn(C)cc1C(O)C#Cc1cncc([C@@](O)(c2ccc(C(C)C)cc2)C2(C)CN(C)C2)c1 (some centres unmarked) [Example 29]	85.5
Cc1nc(C(O)C#Cc2cncc([C@@](O)(c3ccc(C(C)C)cc3)C3(C)CN(C)C3)c2)cs1 (some centres unmarked) [Example 31]	81.2
CC(C)c1ccc([C@](O)(c2cncc(C#CC(C)(O)c3ccn(C)n3)c2)C2(C)CN(C)C2)cc1 (some centres unmarked) [Example 35]	141
CC(C)c1ccc([C@](O)(c2cncc(C#CC(C)(O)c3ncccn3)c2)C2(C)CN(C)C2)cc1 (some centres unmarked) [Example 38]	130
Cc1cc(C(C)(O)C#Cc2cncc([C@@](O)(c3ccc(C(C)C)cc3)C3(C)CN(C)C3)c2)nn1C (some centres unmarked) [Example 39]	76.5
Cc1cc(C(C)(O)C#Cc2cncc(C(O)(c3ccc(C(C)C)cc3)C3(C)CN(C)C3)c2)ncn1 (centres unmarked) [Example 40]	92.5
Cc1cc(C(O)C#Cc2cncc([C@@](O)(c3ccc(C(C)C)cc3)C3(C)CN(C)C3)c2)nn1C (some centres unmarked) [Example 41]	133
CCC(O)(C#Cc1cncc([C@@](O)(c2ccc(C(C)C)cc2)C2(C)CN(C)C2)c1)c1ccccn1 (some centres unmarked) [Example 44]	63.3
CC(C)C(=O)N1CC(O)(C#Cc2cncc([C@@](O)(c3ccc(C(C)C)cc3)C3(C)CN(C)C3)c2)C1 [Example 46]	145
COCCCc1cncc(C(O)(c2ccc(C(C)C)cc2)C2(C)CN(C)C2)c1 (centres unmarked) [Example 48, (1,3-Dimethyl-azetidin-3-yl)-(4-isopropyl-phenyl)-[5-(3-methoxy-propyl)-pyridin-3-yl]-methanol]	100
CC(C)c1ccc([C@](O)(c2cncc(CCCO)c2)C2(C)CN(C)C2)cc1 [Example 49]	219
CC(C)c1ccc([C@](O)(c2cncc(CCC(C)(C)O)c2)C2(C)CN(C)C2)cc1 [Example 50]	90.2
CC(C)c1ccc([C@](O)(c2cncc(CC[C@H](C)O)c2)C2(C)CN(C)C2)cc1 [Example 51]	134
CC(C)c1ccc([C@](O)(c2cncc(CC[C@@H](C)O)c2)C2(C)CN(C)C2)cc1 [Example 52]	200
CC(C)c1ccc([C@](O)(c2cncc(CCC3(O)CC3)c2)C2(C)CN(C)C2)cc1 [Example 54]	66.9
CC(C)c1ccc([C@](O)(c2cncc(CCC3(O)CN(C(=O)OC(C)(C)C)C3)c2)C2(C)CN(C)C2)cc1 [Example 55]	65.8
CC(C)c1ccc([C@](O)(c2cncc(CCCCO)c2)C2(C)CN(C)C2)cc1 [Example 57]	349
CC(C)c1ccc([C@](O)(c2cncc(CCc3cnn(C)c3)c2)C2(C)CN(C)C2)cc1 [Example 58]	440

Continued by falling IC50, values first:

IC50 [nM]	SMILES
61.7	Cc1nc(C(C)(O)C#Cc2cncc([C@@](O)(c3ccc(C(C)C)cc3)C3(C)CN(C)C3)c2)cs1 (some centres unmarked) [Example 36]
61	CC(C)c1ccc([C@](O)(c2cncc(CCC3(O)CCC3)c2)C2(C)CN(C)C2)cc1 [Example 56]
55.9	CC(C)c1ccc([C@](O)(c2cncc(C#CC3(O)CCc4cccnc43)c2)C2(C)CN(C)C2)cc1 (some centres unmarked) [Example 43]
53.5	CC(C)c1ccc([C@](O)(c2cncc(C#C[C@H](C)O)c2)C2(C)CN(C)C2)cc1 [Example 17]
52	CC(C)c1ccc([C@](O)(c2cncc(C#C[C@@H](C)O)c2)C2(C)CN(C)C2)cc1 [Example 16]
47.9	CC(C)c1ccc([C@](O)(c2cncc(C#CC3(O)CCC3)c2)C2(C)CN(C)C2)cc1 [Example 21]
46.8	CC(C)c1ccc([C@](O)(c2cncc(C#Cc3cnn(C)c3)c2)C2(C)CN(C)C2)cc1 [Example 23]
46.3	CC(C)c1ccc([C@](O)(c2cncc(CCC3(O)CCCC3)c2)C2(C)CN(C)C2)cc1 [Example 53]
44.9	CC(C)c1ccc([C@](O)(c2cncc(C#CC3(O)CC3)c2)C2(C)CN(C)C2)cc1 [Example 19]
44.6	CC(C)c1ccc([C@](O)(c2cncc(C#CC(O)C3CCOCC3)c2)C2(C)CN(C)C2)cc1 (some centres unmarked) [Example 28]
43.7	CC(C)c1ccc([C@](O)(c2cncc(C#CC3(O)CCOCC3)c2)C2(C)CN(C)C2)cc1 [Example 27]
43.5	COCC#Cc1cncc(C(O)(c2ccc(C(C)C)cc2)C2(C)CN(C)C2)c1 (centres unmarked) [Example 13, (1,3-Dimethyl-azetidin-3-yl)-(4-isopropyl-phenyl)-[5-(3-methoxy-prop-1-ynyl)-pyridin-3-yl]-methanol]
41.5	CC(C)c1ccc([C@](O)(c2cncc(C#CC3(O)CCCc4cccnc43)c2)C2(C)CN(C)C2)cc1 (some centres unmarked) [Example 42]
35	CC(C)c1ccc([C@](O)(c2cncc(C#Cc3cc4ccccc4[nH]3)c2)C2(C)CN(C)C2)cc1 [Example 47, (R)-(1,3-Dimethyl-azetidin-3-yl)-[5-(1H-indol-2-ylethynyl)-pyridin-3-yl]-(4-isopropyl-phenyl)-methanol]
33.9	CC(C)c1ccc([C@](O)(c2cncc(C#CC3CCOCC3)c2)C2(C)CN(C)C2)cc1 [Example 30]
33.5	CC(C)c1ccc([C@](O)(c2cncc(C#CC3(O)CCCC3)c2)C2(C)CN(C)C2)cc1 [Example 18]
32.8	CCC(O)(C#Cc1cncc([C@@](O)(c2ccc(C(C)C)cc2)C2(C)CN(C)C2)c1)c1cccc(OC)n1 (some centres unmarked) [Example 45]
23	CC(C)c1ccc([C@](O)(c2cncc(C#CC3(O)CN(C(=O)OC(C)(C)C)C3)c2)C2(C)CN(C)C2)cc1 [Example 20]
21.1	COc1ccccc1C(C)(O)C#Cc1cncc([C@@](O)(c2ccc(C(C)C)cc2)C2(C)CN(C)C2)c1 (some centres unmarked) [Example 34]
20.8	COc1ccc(C(C)(O)C#Cc2cncc([C@@](O)(c3ccc(C(C)C)cc3)C3(C)CN(C)C3)c2)cc1 (some centres unmarked) [Example 33]
20.7	COc1cccc(C(C)(O)C#Cc2cncc([C@@](O)(c3ccc(C(C)C)cc3)C3(C)CN(C)C3)c2)n1 (some centres unmarked) [Example 37]
18.7	CC(C)c1ccc([C@](O)(c2cncc(C#CC(C)(O)c3cccc(F)c3)c2)C2(C)CN(C)C2)cc1 (some centres unmarked) [Example 32]
13	CC(C)c1ccc([C@](O)(c2cncc(C#CC(O)C(C)C)c2)C2(C)CN(C)C2)cc1 (some centres unmarked) [Example 26]
7.69	CC(C)c1ccc([C@](O)(c2cncc(C#CC(C)(O)c3ccccc3)c2)C2(C)CN(C)C2)cc1 (some centres unmarked) [Example 25]
6.44	CC(C)c1ccc([C@](O)(c2cncc(C#CC(O)c3ccccc3)c2)C2(C)CN(C)C2)cc1 (some centres unmarked) [Example 24]

From patent US12617773B2, “Azetidin-3-ylmethanol derivatives as CCR6 receptor modulators” (Idorsia Pharmaceuticals Ltd, priority 2020, dated 2026)
